Measured values reported in patent US6262017A, “Peptides for altering osteoblast adhesion” (Research Corporation Technologies, Inc., priority 1998, dated 2001).
Peptide text beside a SMILES is read from it.

Legend:
[1] = tested on: calvarial osteoblasts; test: Calvarial osteoblast two-hour competitive adhesion on KRSRGGG-modified substrates after pre-incubation with soluble peptide; assay type: cell-based
[2] = tested on: osteoblasts; test: Osteoblast four-hour adhesion on peptide-modified glass substrates; assay type: cell-based
Excerpt: Using standard protocols, 3-aminopropyltriethoxysilane was used to immobilize exposed amine groups on the surfaces of glass substrates, and 1-ethyl-3-(3dimethylaminopropyl)carbodimide was used to bind peptides having the sequence KRSRGGG (SEQ ID NO:4) to the exposed amine groups on the glass substrates.
(§1) Peptides were immobilized on substrate surfaces (borosilicate glass, 18 mm round coverslips; Fisher) using silane coupling techniques adapted from published protocols [Weetall Applied Biochem. Biotech. 41, 158-188 (1993); Robinson et al. Biochim. Biophys. Acta 242, 659-661 (1971); and Baum et al. Biochim. Biophys. Acta 268, 411-414 (1972)], the disclosures of which are incorporated herein by reference. Briefly, 3-aminopropyltriethoxysilane (Sigma) was allowed to react with hydroxyl groups on the material surfaces to produce "aminophase" substrates.
(§2) In preparing for peptide immobilization, borosilicate glass coverslips (Fisher) were etched for one hour in a 3:1 (v/v) solution of 2 N sulfuric acid and 2 N nitric acid, degreased in acetone and ethanol, and rinsed with distilled water. The degreased and acid-etched substrates were placed in glass petri dishes which had been previously cleaned with a 3.5% solution of 30% hydrogen peroxide in 18 M sulfuric acid.
(§3) The substrates were dried at 160° C. for at least one hour, rinsed with dry acetone, and immersed in 2% 3-aminopropyltriethoxysilane in dry acetone, supplemented with 2% triethylamine under an argon atmosphere at […] for one hour. The substrates were rinsed (under an argon atmosphere) once with methylene chloride and twice with dry acetone, and cured under argon at 120° C. for three hours.
(§4) Peptides were covalently bound to immobilized exposed amine groups on the substrate surfaces during a twenty-minute incubation (under argon) with a 25:25:1 (v/v/v) solution of peptide (0.1 mM in dry N,N-dimethylformamide):1-ethyl-3-(3-dimethylaminopropyl)carbodiimide (2.5 mg/mL in dry N,N-dimethylformamide): n-ethylmorpholine. Unreacted amine groups were passivated by soaking peptide-modified substrates in acetic anhydride for 5 minutes; absorbed peptides were then removed by soaking for 5 minutes in 4 M urea, rinsing in distilled water, and soaking for 5 minutes in 1 M sodium chloride. Peptide-modified substrates were then thoroughly rinsed in distilled water prior to sterilization and use.
(§5) Substrates which had been etched in a 3:1 (v/v) solution of 2 N sulfuric acid: 2 N nitric acid, degreased in acetone and ethanol, and rinsed copiously with distilled water were used as references. Glass substrates were sterilized via overnight ultraviolet irradiation prior to use in experiments.

[3] = tested on: osteoblasts; test: Osteoblast four-hour adhesion in the absence and presence of 0.2 U/ml heparinase; assay type: cell-based; conditions: for Cell density, Average: Table 10, four-hour adhesion
Excerpt: The heparinase used degrades heparan sulfate in a very selective manner.
as §1, §2, §3, §4
as §5, with “In all experiments performed in the present invention, substrates which had been aminated but not peptide-grafted (i.e., aminophase substrates) were used as controls. Substrates” for “Substrates”

[4] = tested on: endothelial cells; test: Endothelial cell four-hour adhesion on peptide-modified glass; assay type: cell-based; conditions: for Cell density, Average: four-hour adhesion, peptide immobilized on glass
Excerpt: as §1, §2, §3, §4
as §5, with “In all experiments performed in the present invention, substrates which had been aminated but not peptide-grafted (i.e., aminophase substrates) were used as controls. Substrates” for “Substrates”

[5] = tested on: BMD osteoclasts (bone-resorbing cells); test: Four-hour adhesion of Table 3 (title: BMD osteoblast-like cell; text: BMD osteoclasts) on peptide-modified glass; assay type: cell-based; conditions: for Cell density, Average: Table 3, four-hour adhesion, peptide immobilized on glass
Excerpt: as §1, §2, §3
as §4, with “use. […]” for “use.”

[6] = tested on: bone marrow derived (BMD) osteoblast-like cells; test: Bone marrow-derived osteoblast-like cell four-hour adhesion on peptide-modified glass; assay type: cell-based; conditions: Table 2, peptide immobilized on glass
Excerpt: as §1, §2
as §3, with “hours. […]” for “hours.”

[7] = tested on: fibroblasts; test: Fibroblast adhesion on peptide-modified surfaces; assay type: cell-based; conditions: surfaces modified with peptide
[8] = tested on: BMD osteoblast-like cells; test: BMD osteoblast-like two-hour competitive adhesion on KRSRGGG-modified substrates; assay type: cell-based
Description: The effect of pre-incubation of BMD osteoblast-like and osteoclast-like cells was also examined with similar results (Tables 8 and 9).

[9] = tested on: osteoblasts; conditions: cultured for two weeks on peptide-modified Ti-6Al-4V
Description: In the present study, medical grade Ti-6Al-4V stock (ASTM F-136; Osteonics) was sectioned into coupons using a low-speed saw equipped with a diamond wafering blade. The metal coupons were then polished to a 30 micron finish via sanding (using 600 grit paper on a sanding wheel), polishing to a 15 micron finish and then to a 9 micron finish (using diamond spray on a polishing wheel), and finally polishing to a 3 micron finish using aluminum oxide (Al2 O3) mixed with 30% hydrogen peroxide on a polishing wheel), according to standard techniques. Polished metal coupons were degreased with acetone and ethanol and rinsed copiously with distilled water before peptides were immobilized on the metal surfaces (via the aforementioned techniques).

[10] = Table 1, peptide immobilized on glass
[11] = Table 6, KRSR peptides of different lengths on glass
[12] = Table 4 (second, identical print)
[13] = Table 8, peptide concentration 0.5 mM
[14] = Table 8, peptide concentration 1.0 mM
[15] = Table 8, peptide concentration 1.5 mM
[16] = Table 8, peptide concentration 2.0 mM

Compound	Cell density, Average [2, 10] [Cells/cm^2]	Cell density, Average [2, 11] [Cells/cm^2]	Cell density, Average ([3]; Heparinase 0.2 U/ml) [Cells/cm^2]	Cell density, Average ([3]; Heparinase none) [Cells/cm^2]	Cell density, Average ([4]; Table 4 (first print)) [Cells/cm^2]	Cell density, Average [4, 12] [Cells/cm^2]	Cell density, Average [5] [Cells/cm^2]	Cell density, Average [6] [Cells/cm^2]	Cell Adhesion expressed as % control [8, 13] [% control]	Cell Adhesion expressed as % control [8, 14] [% control]	Cell Adhesion expressed as % control [8, 15] [% control]	Cell Adhesion expressed as % control [8, 16] [% control]	Cell density, Average ([2]; Table 5, KRSR vs HHWH on glass) [Cells/cm^2]	other results
N=C(N)NCCC[C@H](NC(=O)[C@H](CO)NC(=O)[C@H](CCCNC(=N)N)NC(=O)[C@@H](N)CCCCN)C(=O)NCC(=O)NCC(=O)NCC(=O)O [KRSRGGG, H-Lys-Arg-Ser-Arg-(Gly)3 --OH] (H-KRSRGGG-OH)	2145	1770	330	2145	1600	1600	2377	2332	81.63	78.91	66.67	55.5	–	Effect of pre-incubation of osteoblasts with peptide on adhesion to KRSR-modified substrate (in words) [1]: significant decrease in adhesion; Effect of heparinase treatment on osteoblast adhesion (in words) ([3]; heparinase treatment, peptide-modified substrate): significantly inhibited adhesion; Endothelial cell adhesion to peptide-modified surfaces (in words) ([4]; surfaces modified with peptide): do not adhere in significantly greater numbers; BMD osteoclast adhesion versus other treated or untreated surfaces (in words) ([5]; peptide-modified surfaces): in greater numbers; Fibroblast adhesion to peptide-modified surfaces (in words) [7]: do not adhere in significantly greater numbers
N=C(N)NCCC[C@H](NC(=O)[C@H](CO)NC(=O)[C@H](CO)NC(=O)[C@@H](N)CCCCN)C(=O)NCC(=O)NCC(=O)NCC(=O)O [KSSRGGG, Lysine-Serine-Serine-Arginine-Glycine-Glycine-Glycine, reference compound] (H-KSSRGGG-OH)	–	–	–	–	–	–	–	–	109.52	93.65	101.59	107.94	–	–
Arginine-Aspartic Acid-Glycine-Serine [RDGS, reference compound]	1656	–	378	1656	1570	1570	2188	1712	–	–	–	–	–	Osteoblast morphology and cytoskeletal organization [9]: normal morphology and cytoskeletal organization
H-Lys-Arg-Ser-Arg-OH (H-KRSR-OH)	–	1508	–	–	–	–	–	–	–	–	–	–	1508	–
Histidine-Histidine-Tryptophan-Histidine (HHWH) [reference compound]	–	–	–	–	–	–	–	–	–	–	–	–	1080	–
KRSRQGGGGG [KRSR peptide of a different (longer) spacer length attached to the substrate]	–	1708	–	–	–	–	–	–	–	–	–	–	–	–
